# Reference: patent publication US20130089601A1, “METHOD FOR TREATING ATHEROSCLEROSIS” (KAOHSIUNG MEDICAL UNIVERSITY, priority 2009, published 2013)
# Tests used:
# [1] = test system: apoE−/− mice
# Description: Lentivector Expression System was purchased from System Biosciences. The microRNA expression vectors pCDH-CMV-MCS-EF1- GreenPuro vector (System Biosciences, SBI) contain a CMV-driven EGFP reporter. The full length sequence of microRNA-195 was amplified from genomic DNA by polymerase chain reaction (PCR). Primer pairs for microRNA expression vectors were microRNA-195 forward: 5′-[…]-3′ (SEQ ID NO: 3), and reverse: 5′-[…]-3′ (SEQ ID NO: 4). The PCR products were inserted to the microRNA expression vectors. The clones carrying microRNA-195 was named pCDH-miR-195. The pCDH vector was used as control.
# The miRNA expression vectors (pCDH-miR-195 and pCDH mock vector) and Lentivirus Package plasmid mix (System Biosciences, SBI) were cotransfected into 293TN cells with PureFection™ Transfection Reagent (System Biosciences; Mountain View, Calif., USA), and Lenti-X Concentrator (Clontech, USA) was used for concentration. Infectious titers were determined by counting GFP positive-293T cells using a fluorescence microscope.
# 0.1 ml PBS with 10^7 IFU Lentivirus containing pCDH-miR-195 or a control vector was injected to the tail veil of the apoE−/− mice that were under a high fat diet. The injection was repeated once a week for a total of 12 weeks. Changes in body weight of the apoE−/− mice treated with Lentivirus containing pCDH-miR-195 (the microRNA-195 treatment group) and the apoE−/− mice treated with Lentivirus containing the control vector (the control group) were recorded every week and are shown in FIG. 7. When the experiment was completed, the mice of the microRNA-195 treatment group and the mice of the control group were sacrificed.
# Biochemical indexes, such as blood urea nitrogen (BUN) and creatinine (CRE) for renal function, GOT (AST) and GPT (ALT) for liver function, fasting blood sugar (GLU), total cholesterol (T-CHO), high density lipoprotein (HDL), low density lipoprotein (LDL) and triglyceride (TG) of the blood of mice of the microRNA-195 treatment group and mice of the control group were determined and are shown in Table 2, respectively. Indexes for weight of various organs to body weight (organ weight/body weight) of mice of the microRNA-195 treatment group and the mice of the control group were determined and are shown in Table 3, respectively.
# [2] = test system: vascular smooth muscle cells (VSMC); test: WST-1 cell proliferation assay of VSMC stimulated with ox-LDL; format: cell-based, human; details: ox-LDL 40 μg/ml, 24 hours
# Method: The experiments were conducted in the primary aortic smooth muscle cells (purchased as cryopreserved tertiary cultures from Cascade Biologics, OR, USA) at passages 4 to 8. The VSMC cells were maintained in an M231 culture medium supplemented with fetal bovine serum (FBS, 5%), human epidermal growth factor (10 ng/ml), human basic fibroblast growth factor (3 ng/ml), insulin ([…]), penicillin (100 units/ml), streptomycin ([…]), and Fungizone ([…]). The cultures were kept at a temperature of 37° C. in an atmosphere of 5% CO2 in air.
# The transfection was performed using a siPort NeoFx reagent (Ambion) and VSMC cell proliferation and migration were evaluated 24 hours after the microRNA-195 transfection. In addition, simvastatin was used, a widely used lipid lowering drug and anti-atherosclerosis drug, to test the influence of microRNA-195 levels by simvastatin.
# VSMC is an established model for atherosclerosis studies and when atherosclerosis incursion VSMC proliferation increases. A VSMC proliferation rate was used as a surrogate for the development of atherosclerosis, which was assessed by WST-1. By using a 1-3 μL siPort NeoFx (Ambion) reagent, 0-120 nM of microRNA-195 (Pre-miR™ miRNA, hsa-miR-195 (product ID PM10827), Ambion Inc.) was transfected into the VSMC cells while they were incubated with ox-LDL (40 μg/ml) for 24 hours. […] The microplates were then read by a spectrophotometer by measuring the absorbance of a dye with a wavelength of 450 nm and a reference wavelength of 600 nm (Benchmark PLUS Microplate Spectrophotometer, Bio-Rad) and plotted. […]
# Cell proliferation of the VSMC was evaluated following incubation in ox-LDL (40 μg/ml) for 24 hours in the presence of microRNA-195 (Pre-miR miRNA, hsa-miR-195 (product ID PM10827), Ambion Inc.) (100 nM), simvastatin (1 nM) or Panax Notoginseng (in a form of water extract with concentration of 1 mg/ml; Chuang Song Zong Pharmaceutical co. Ltd), or in the presence of microRNA-195 (100 nM) with simvastatin (1 nM) or with Panax Notoginseng (in a form of water extract with concentration of 1 mg/ml). […]
# [3] = test system: TNF-a; test: Real-time qPCR of TNF-a mRNA in HUVECs co-cultured with transfected HASMCs; format: cell-based, human; details: co-cultured with microRNA-195-transfected HASMCs
# Method: (§1) HASMCs were transfected with negative control microRNA or microRNA-195 with or without the presence of oxLDL. MicroRNA-195-transfected HASMCs were co-cultured with HUVEC. Real-time qPCR analysis of mRNA levels for genes surrogating endothelial functions as well as atherosclerosis, such as vascular cell adhesion molecule-1 (VCAM-1), […] (TNF-a) and interleukin-6 (IL-6), and vasodilation gene, endothelial nitric oxide synthase (eNOS), were determined in HUVECs.
# [4] = test system: IL-6; test: Real-time qPCR of IL-6 mRNA in HUVECs co-cultured with transfected HASMCs; format: cell-based, human; details: co-cultured with microRNA-195-transfected HASMCs
# Method: as §1
# [5] = Lentivirus containing pCDH-miR-195, 12 weeks, high fat diet
# [6] = Lentivirus containing pCDH-miR-195 vs control group, from Table 2
# [7] = blood, Lentivirus containing pCDH-miR-195 10^7 IFU tail vein weekly, 12 weeks, high fat diet
substance,measurement,setting,value
"microRNA-195: Pre-miR miRNA, hsa-miR-195 (product ID PM10827), Ambion Inc., which mimics precursor for mature human miR-195; mimic 5′-UAGCAGCACAGAAAUAUUGGC-3′ (SEQ ID NO: 5) (chemistry not given here)","Heart weight/body weight, average",[1]; [5],0.49%
same,"Kidney weight/body weight, average",[1]; [5],1.20%
same,"Liver weight/body weight, average",[1]; [5],3.35%
same,"Lung weight/body weight, average",[1]; [5],0.72%
same,"Spleen weight/body weight, average",[1]; [5],0.32%
same,HDL increase,[1]; [6],77%
same,triglyceride decrease,[1]; [6],26%
same,blood sugar level versus placebo treated animals,"[1]; Lentivirus containing pCDH-miR-195 vs control vector, high-fat diet",lower
same,control of the increase of body weight,"[1]; Lentivirus containing pCDH-miR-195 vs control vector, high-fat diet, 12 weeks",better than the placebo
same,"BUN (blood urea nitrogen), average",[1]; [7],21.5
same,"CRE (creatinine), average",[1]; [7],0.7
same,"GLU (fasting blood sugar), average",[1]; [7],166.5
same,"GOT (AST), average",[1]; [7],118.5
same,"GPT (ALT), average",[1]; [7],28.5
same,"HDL (high density lipoprotein), average",[1]; [7],11.5
same,"T-CHO (total cholesterol), average",[1]; [7],711.5
same,"TG (triglyceride), average",[1]; [7],141
same,reduction of VSMC cell proliferation,[2]; 30 nM transfected,21%
same,reduction of VSMC cell proliferation,[2]; 60 nM transfected,29%
same,reduction of VSMC cell proliferation,[2]; 120 nM transfected,45%
same,TNF-a mRNA level in HUVECs,[3],suppresses
same,IL-6 mRNA level in HUVECs,[4],suppresses
